This note sets out measurements from US10370328B2, “Oxindole compounds and pharmaceutical compositions thereof” (MUSC FOUNDATION FOR RESEARCH DEVELOPMENT, priority 2015, dated 2019).

One assay has as its system rd1 mouse. In words: Rd1 mouse model of RP (retina organ culture), rows of photoreceptors. To be noted: 10 nM; equivalent of postnatal day 21; P = 0.04; rd1 vehicle 1.81 ± 0.09. Type of assay: cell-based.
For another assay, the system named is rd10 mouse. In words: Rd10 mouse model of RP, eye drops, rows of photoreceptors. It counts as in vivo. As to conditions: 100 μM eye drops once daily from postnatal day 14, assessed at postnatal day 25; P < 0.005; vehicle 2.3 ± 0.23.
A further assay relates to Balb/c mice. In words: Light model assay (light damage), eye drops, rows of photoreceptors. As to conditions: 100 μM eye drops once daily; continuous light for 7 days; maximum effect. Type of assay: in vivo, mouse. The text has this:
The light model assay is generally accepted as a model of age related macular degeneration (AMD). […] In particular, oxidative damage has been detected by immunohistochemistry, detecting the presence of oxidized and tyrosine-phosphorylated proteins as well as the upregulation of endogenous antioxidants such as thioredoxin and glutathione peroxidase.
The light model assay was used to further test the therapeutic potential of the compounds of the invention. Photoreceptors from albino animals are very sensitive to constant light, lacking the RPE pigment to protect them. […] To test the potential therapeutic efficacy, eye drops were formulated in 0.1% Myrj in 0.9% saline, applied once daily throughout the period of light exposure, and their effect assessed on the light-induced degeneration of photoreceptor cells morphologically and electrophysiologically, 10 days after the onset of the CL exposure.

The next assay deals with 661W or C6 cells. As to the kind of experiment: Metabolic Protection Assay (MTT), protection from calcium-ionophore A23187. It counts as cell-based. To be noted: 1 μM ionophore, 24 h. As for the experimental part: The compound 3-(4,5-Dimethylthiazol-2-yl)-2,5-diphenyltetrazolium bromide (MTT) is a tetrazolium ion that is reduced to a blue formazan dye via several families of NAD(P)H-dependent oxidoreductases. Formation of the formazan dye from MTT or other related tetrazolium dyes are commonly used as a viability assay even though, in fact, the assay is a metabolic capacity assay.
In this assay, 661W or C6 cells were maintained in DMEM supplemented with 10% serum. 100 of 70,000 cells/mL cells were seeded into each well of 96 well plates using DMEM supplemented with 5% serum. Cells were then allowed to grow to confluency for 48 hours. Representative compounds of the invention were added in 2 μL media and calcium-ionophore A23187 was then added in 1 μL for a final concentration of 1 μM and after 24 h, 20 uL of […] MTT were added to each well and the cells were incubated for another 4 h after which 100 μL of 1% SDS in 0.01 M aqueous HCl were added to each well and the plates were incubated overnight. Absorbance was measured at […] (background correction). The 1 μM ionophore A23187 caused about 50% loss in MTT signal at 24 h. Protection was calculated as the increase in absorbance of treatment groups normalized to the vehicle control.

Method for rd1 mouse: For the calcium-overload in vitro, the rd1 mouse was utilized (e.g., Farber et al., 1995). […] To test the potential therapeutic efficacy, compounds were added to the culture media starting the day after the start of the culture (equivalent to postnatal day 11) and replaced every 48 hours. Effects were assessed on the degeneration of photoreceptor cells morphologically at the equivalent of postnatal day 21.
From the text for rd10 mouse: To test the potential therapeutic efficacy, eye drops were formulated in 0.1% Myrj in 0.9% saline, applied once daily starting at the day of eye opening (postnatal day 14), and their effect assessed on the degeneration of photoreceptor cells morphologically at postnatal day 25.

With `CCN1C(=O)C(Cc2cccc(OC)c2O)(OC(=O)N(C)C)c2cc(Cl)ccc21` (stereo not drawn) [Example 10, 5-chloro-1-ethyl-3-(2-hydroxy-3-methoxybenzyl)-2-oxoindolin-3-yl dimethylcarbamate], the “rd1 protection (# of rows)” value in the assay with rd1 mouse is on record as “(10 nM) 2.51 ± 0.25 (P = 0.04) # of rows”. The “rd10 protection (# of rows)” value in the assay on rd10 mouse was “(100 μM) 2.8 ± 0.48 (P < 0.005) # of rows”. For the same molecule, in the assay with Balb/c mice, the “LD Protection (# of rows)” value is reported as “(100 μM) 5.8 ± 0.34 (P < 0.001) # of rows”.

As to `CCN1C(=O)C(Cc2cccc(OC)c2OC(=O)NCCOCCO)(OC(=O)c2ccccc2)c2cc(Cl)ccc21` (stereo not drawn) [Example 12, 5-chloro-1-ethyl-3-(2-(((2-(2-hydroxyethoxy)ethyl)carbamoyl)oxy)-3-methoxybenzyl)-2-oxoindolin-3-yl benzoate], the “LD Protection (# of rows)” value in the assay with Balb/c mice is on record as “(100 μM) 4.87 ± 0.22 (P < 0.01) # of rows”.

In the case of `CCN1C(=O)C(O)(Cc2cccc3c2OCO3)c2cc(C)ccc21` (stereo not drawn) [Example 17, 3-(benzo[d][1,3]dioxol-4-ylmethyl)-1-ethyl-3-hydroxy-5-methylindolin-2-one], the “LD Protection (# of rows)” value with Balb/c mice is “(100 μM) 6.48 ± 0.13 (P < 0.001) # of rows”.

For the molecule `CNc1ccc2oc(C[C@H]3O[C@@]4(CC[C@H]3C)O[C@H]([C@H](C)C(=O)c3ccc[nH]3)[C@H](C)C[C@H]4C)nc2c1C(=O)O` [Example A23187], in the assay with 661W or C6 cells, the “loss in MTT signal” value is recorded as “about 50%”.
